Here are results for 34 molecules from patent US20220144838A1, “Compounds as Inhibitors of Macrophage Migration Inhibitory Factor” (NANJING IMMUNOPHAGE BIOTECH CO., LTD., priority 2019, published 2022).

The target in the assay is T1, MIF (Homo sapiens, UniProt P14174).
T1 sequence (P14174 2-115 limits assumed): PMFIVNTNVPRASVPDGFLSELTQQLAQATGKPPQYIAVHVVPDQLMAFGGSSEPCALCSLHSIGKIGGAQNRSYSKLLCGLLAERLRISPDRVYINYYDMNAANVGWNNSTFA
Put plainly: MIF tautomerase assay using pHPP as substrate. Type of assay: biochemical. The note with it: mean of multiple test results. Summed up:
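Cell-free keto-to-enol tautomerization of pHPP, enol product detected spectrophotometrically as borate complex. Final 3 nM MIF and 1.5 mM ketonic pHPP in DPBS/boric acid buffer with 0.025% BSA and 300 μM CHAPS, pH 6.0, room temperature; initial rates from absorbance slopes give mean pIC50.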

The mark [1] stands for this setting: inhibition of the MIF enzyme in vitro, read-out: Tautomerase Inhibition pIC50 (converted).

Like-named read-outs stand apart in the source and are kept apart here.

For `O=C(O)Cn1cnc2c(-n3ncc4c(Cl)cccc43)nc(N3CCN(c4ccc(O)cc4)CC3)nc21` [Example 106, 2-(6-(4-chloro-1H-indazol-1-yl)-2-(4-(4-hydroxyphenyl)piperazin-1-yl)-9H-purin-9-yl)acetic acid], the IC50 under setting [1] is 100 to 977 nM.

As to `COc1cccc2c1cnn2-c1nc(N2CCN(c3ccc(O)cc3)CC2)nc2c1ncn2CC(=O)O` [Example 107, 2-(6-(4-methoxy-1H-indazol-1-yl)-2-(4-(4-hydroxyphenyl)piperazin-1-yl)-9H-purin-9-yl)acetic acid], under setting [1], the IC50 is 10 to 97.7 nM.

For `O=C(O)Cn1cnc2c(-n3ncc4c(O)cccc43)nc(N3CCN(c4ccc(O)cc4)CC3)nc21` [Example 108, 2-(6-(4-hydroxy-1H-indazol-1-yl)-2-(4-(4-hydroxyphenyl)piperazin-1-yl)-9H-purin-9-yl)acetic acid], the IC50 under setting [1] was 10 to 97.7 nM.

In the case of `O=C(O)Cn1cnc2c(-n3ncc4cc(CO)ccc43)nc(N3CCN(c4ccc(O)cc4)CC3)nc21` [Example 109, 2-(6-(5-(hydroxymethyl)-1H-indazol-1-yl)-2-(4-(4-hydroxyphenyl)piperazin-1-yl)-9H-purin-9-yl)acetic acid], the IC50 is at most 100 nM (FIGS. 1-5, read-out: pIC50 MIF tautomerase activity (converted)) and 10 to 97.7 nM under setting [1].

Take `Cc1nc(N2CCN(c3ccc(O)cc3)CC2)nc2c1ncn2C(CO)CO` [Example 110, 2-(2-(4-(4-hydroxyphenyl)piperazin-1-yl)-6-methyl-9H-purin-9-yl)propane-1,3-diol]: the IC50 under setting [1] was over 10000 nM.

Turning to `Cc1nc(N2CCN(c3ccc(O)cc3)CC2)nc2c1ncn2CCO` [Example 111, 4-(4-(9-(2-hydroxyethyl)-6-methyl-9H-purin-2-yl)piperazin-1-yl)phenol], the IC50 under setting [1] was 1000 to 9770 nM.

On to `OCCNc1nc(N2CCN(c3ccc(O)cc3)CC2)nc2c1ncn2-c1cccnc1` [Example 112, 4-(4-(6-((2-hydroxyethyl)amino)-9-(pyridin-3-yl)-9H-purin-2-yl)piperazin-1-yl)phenol], for which the IC50 under setting [1] was 100 to 977 nM.

Consider `OCCCNc1nc(N2CCN(c3ccc(O)cc3)CC2)nc2c1ncn2-c1cccnc1` [Example 113, 4-(4-(6-((3-hydroxypropyl)amino)-9-(pyridin-3-yl)-9H-purin-2-yl)piperazin-1-yl)phenol], for which the IC50 under setting [1] is 100 to 977 nM.

For the molecule `CCC(CO)Nc1nc(N2CCN(c3ccc(O)cc3)CC2)nc2c1ncn2-c1cccnc1` (centres unmarked) [Example 114], under setting [1], the IC50 is 100 to 977 nM.

As to `Oc1ccc(N2CCN(c3nc(-n4ncc5ccccc54)c4ncn(Cc5ccccn5)c4n3)CC2)cc1` [Example 116, 4-(4-(6-(1H-indazol-1-yl)-9-(pyridin-2-ylmethyl)-9H-purin-2-yl)piperazin-1-yl)phenol], under setting [1], the IC50 was 100 to 977 nM.

With `Oc1ccc(N2CCN(c3nc(-n4ncc5ccccc54)c4ncn(CCc5nnn[nH]5)c4n3)CC2)cc1` [Example 117, 4-(4-(9-(2-(1H-tetrazol-5-yl)ethyl)-6-(1H-indazol-1-yl)-9H-purin-2-yl)piperazin-1-yl)phenol], the IC50 under setting [1] is 100 to 977 nM.

Regarding `O=C(O)Cn1cnc2c(-c3cccc4[nH]ccc34)nc(N3CCN(c4ccc(O)cc4)CC3)nc21` [Example 118, 2-(2-(4-(4-hydroxyphenyl)piperazin-1-yl)-6-(1H-indol-4-yl)-9H-purin-9-yl)acetic acid], the IC50 under setting [1] is 1000 to 9770 nM.

Take `O=C(O)Cn1cnc2c(N3Cc4ccccc4C3=O)nc(N3CCN(c4ccc(O)cc4)CC3)nc21` [Example 119, 2-(2-(4-(4-hydroxyphenyl)piperazin-1-yl)-6-(1-oxoisoindolin-2-yl)-9H-purin-9-yl)acetic acid]: under setting [1], the IC50 was 100 to 977 nM.

Turning to `O=C(O)Cn1cnc2c(-n3nnc4cccnc43)nc(N3CCN(c4ccc(O)cc4)CC3)nc21` [Example 120, 2-(6-(3H-[1,2,3]triazolo[4,5-b]pyridin-3-yl)-2-(4-(4-hydroxyphenyl)piperazin-1-yl)-9H-purin-9-yl)acetic acid], the IC50 under setting [1] is 10 to 97.7 nM.

Regarding `O=C(O)Cn1cnc2c(-n3nnc4ccncc43)nc(N3CCN(c4ccc(O)cc4)CC3)nc21` [Example 121, 2-(6-(3H-[1,2,3]triazolo[4,5-c]pyridin-3-yl)-2-(4-(4-hydroxyphenyl)piperazin-1-yl)-9H-purin-9-yl)acetic acid], under setting [1], the IC50 is 10 to 97.7 nM.

With `O=C(O)Cn1cnc2c(-n3nnc4c(C(=O)O)cccc43)nc(N3CCN(c4ccc(O)cc4)CC3)nc21` [Example 122, 1-(9-(carboxymethyl)-2-(4-(4-hydroxyphenyl)piperazin-1-yl)-9H-purin-6-yl)-1H-benzo[d][1,2,3]triazole-4-carboxylic acid], the IC50 under setting [1] was 10 to 97.7 nM.

Consider `O=C(O)Cn1cnc2c(-n3nnc4c(CO)cccc43)nc(N3CCN(c4ccc(O)cc4)CC3)nc21` [Example 123, 2-(6-(4-(hydroxymethyl)-1H-benzo[d][1,2,3]triazol-1-yl)-2-(4-(4-hydroxyphenyl)piperazin-1-yl)-9H-purin-9-yl)acetic acid], for which, under setting [1], the IC50 is 10 to 97.7 nM.

Consider `CC(C(=O)O)n1cnc2c(-n3ncc4ccccc43)nc(N3CCN(c4ccc(O)cc4)CC3)nc21` (centres unmarked) [Example 124, 2-(2-(4-(4-hydroxyphenyl)piperazin-1-yl)-6-(1H-indazol-1-yl)-9H-purin-9-yl)propanoic acid], for which, under setting [1], the IC50 was 10 to 97.7 nM.

Regarding `CC(C(=O)O)n1cnc2nc(N3CCN(c4ccc(O)cc4)CC3)nc(-n3ncc4ccccc43)c21` (centres unmarked) [Example 125, 2-(2-(4-(4-hydroxyphenyl)-piperazin-1-yl)-6-(1H-indazol-1-yl)-7H-purin-7-yl)propanoic acid], under setting [1], the IC50 was 100 to 977 nM.

Take `CC(C(=O)O)n1cnc2c(-n3cc4ccccc4n3)nc(N3CCN(c4ccc(O)cc4)CC3)nc21` (centres unmarked) [Example 126, 2-(2-(4-(4-hydroxyphenyl)piperazin-1-yl)-6-(2H-indazol-2-yl)-9H-purin-9-yl)propanoic acid]: the IC50 under setting [1] was 100 to 977 nM.

With `CCC(C(=O)O)n1cnc2c(-n3ncc4ccccc43)nc(N3CCN(c4ccc(O)cc4)CC3)nc21` (centres unmarked) [Example 127, 2-(2-(4-(4-hydroxyphenyl)piperazin-1-yl)-6-(1H-indazol-1-yl)-9H-purin-9-yl)butanoic acid], the IC50 under setting [1] was 10 to 97.7 nM.

`CC(C)(C(=O)O)n1cnc2c(-n3ncc4ccccc43)nc(N3CCN(c4ccc(O)cc4)CC3)nc21` [Example 128, 2-(2-(4-(4-hydroxyphenyl)piperazin-1-yl)-6-(1H-indazol-1-yl)-9H-purin-9-yl)-2-methylpropanoic acid]: the IC50 under setting [1] is 10 to 97.7 nM.

As to `O=C(O)Cn1cnc2c(-n3ncc4ccccc43)nc(N3CCN(c4ccc(O)nc4)CC3)nc21` [Example 129, 2-(2-(4-(6-hydroxypyridin-3-yl)piperazin-1-yl)-6-(1H-indazol-1-yl)-9H-purin-9-yl)acetic acid], the IC50 under setting [1] was over 10000 nM.

Take `O=C(O)Cn1cnc2c(-n3ncc4ccccc43)nc(N3CCN(c4ncc(O)cc4F)CC3)nc21` [Example 130, 2-(2-(4-(3-fluoro-5-hydroxypyridin-2-yl)piperazin-1-yl)-6-(1H-indazol-1-yl)-9H-purin-9-yl)acetic acid]: under setting [1], the IC50 is over 10000 nM.

`COC(=O)Cn1cnc2c(-n3ncc4ccccc43)nc(N3CCN(c4ccc(O)cc4)CC3)nc21` [Example 131, methyl 2-(2-(4-(4-hydroxyphenyl)piperazin-1-yl)-6-(1H-indazol-1-yl)-9H-purin-9-yl)acetate]: the IC50 under setting [1] is 100 to 977 nM.

On to `O=C(O)CNC(=O)Cn1cnc2c(-n3ncc4ccccc43)nc(N3CCN(c4ccc(O)cc4)CC3)nc21` [Example 132, 2-(2-(2-(4-(4-hydroxyphenyl)piperazin-1-yl)-6-(1H-indazol-1-yl)-9H-purin-9-yl)acetamido)acetic acid], for which the IC50 under setting [1] was 10 to 97.7 nM.

Take `OCC(CO)n1cnc2c(N3CCc4ccccc43)nc(N3CCN(c4ccc(O)cc4)CC3)nc21` [Example 133, 2-(2-(4-(4-hydroxyphenyl)piperazin-1-yl)-6-(indolin-1-yl)-9H-purin-9-yl)propane-1,3-diol]: under setting [1], the IC50 was 100 to 977 nM.

Regarding `N#Cc1nn(-c2nc(N3CCN(c4ccc(O)cc4)CC3)nc3c2ncn3CC(=O)O)c2ccccc12` [Example 134, 2-(2-(4-(4-hy-droxyphenyl)piperazin-1-yl)-6-(3-cyano-1H-indazol-1-yl)-9H-purin-9-yl)acetic acid], the IC50 under setting [1] is 10 to 97.7 nM.

For the molecule `O=C(O)Cn1cnc2c(-n3nc(-c4nnn[nH]4)c4ccccc43)nc(N3CCN(c4ccc(O)cc4)CC3)nc21` [Example 135], the IC50 under setting [1] is 10 to 97.7 nM.

As for `O=C1c2ccccc2C(=O)N1CCn1cnc2c(-n3ncc4ccccc43)nc(N3CCN(c4ccc(O)cc4)CC3)nc21` [Example 136, 2-(2-(2-(4-(4-hydroxyphenyl)piperazin-1-yl)-6-(1H-indazol-1-yl)-9H-purin-9-yl)ethyl)isoindoline-1,3-dione], the IC50 under setting [1] is 1000 to 9770 nM.

`NCCn1cnc2c(-n3ncc4ccccc43)nc(N3CCN(c4ccc(O)cc4)CC3)nc21` [Example 137, 4-(4-(9-(2-aminoethyl)-6-(1H-indazol-1-yl)-9H-purin-2-yl)piperazin-1-yl)phenol]: the IC50 under setting [1] was 1000 to 9770 nM.

Consider `CC(=O)NCCn1cnc2c(-n3ncc4ccccc43)nc(N3CCN(c4ccc(O)cc4)CC3)nc21` [Example 138, N-(2-(2-(4-(4-hydroxyphenyl)piperazin-1-yl)-6-(1H-indazol-1-yl)-9H-purin-9-yl)ethyl)acetamide], for which the IC50 under setting [1] is 100 to 977 nM.

For `CS(=O)(=O)NCCn1cnc2c(-n3ncc4ccccc43)nc(N3CCN(c4ccc(O)cc4)CC3)nc21` [Example 139, N-(2-(2-(4-(4-hydroxyphenyl)piperazin-1-yl)-6-(1H-indazol-1-yl)-9H-purin-9-yl)ethyl)methanesulfonamide], the IC50 under setting [1] was 1000 to 9770 nM.

Regarding `O=C(O)Cn1cnc2c(-n3ncc4ccccc43)nc(N3CCN(c4ccc5[nH]ncc5c4)CC3)nc21` [Example 140, 2-(2-(4-(1H-indazol-5-yl)piperazin-1-yl)-6-(1H-indazol-1-yl)-9H-purin-9-yl)acetic acid], under setting [1], the IC50 was over 10000 nM.
